We go through 25 molecules from paper doi:10.1101/2025.10.10.681657 (bioRxiv, 2025).

Data set [1] addresses U4/U6 snRNA construct (92 nt). The data set can be described thus: SPR binding to U4/U6 snRNA construct (92 nt). The arrangement: species or system yeast. The settings on record: 92 nt RNA, steady-state fit; >100 = signal appeared at 100 μM but failed to fit. How it is done: SPR experiments were carried out using an SPR optical biosensor (BIAcore 3000, Cytiva, USA) based on reported methods with minor modifications.[35] To avoid RNA degradation during long-time injections, the whole microfluidic system was washed by priming 50% RNase Zap buffer and RNase-free water one day before the experiments. Then, by using running buffer (1xPBS, pH7.4, 0.005% Tween 20, 5% DMSO) at a flow rate of 5 μL/min, the binding assays were performed. In brief, a CM5 chip surface coated with carboxylated dextran was activated by standard EDC/NHS amine-coupling protocol and then conjugated with streptavidin (200 ng/mL in 10 mM sodium acetate buffer, pH 4.5) for 30 min, resulting in 4000~6000 response units (RUs) signal. After streptavidin conjugation, the surface was deactivated (1 M ethanolamine, pH 8.5) for 10 min and regenerated (10 mM NaOH) for 2 min to remove unbound SA. Then, the folded U4/U6 RNA with biotin-label at 5′ end was prepared (according to the above-mentioned method) at 5 μM and injected in flow-cell (Fc) 2 for 30 min while Fc1 was kept blank as a reference. Then, the system continued flowing the running buffer until the baseline was stable before future steps.
To detect binding between small molecules and U4/U6 snRNA, a 50 μL compound solution was applied to both Fc1 and Fc2 channels simultaneously at a higher flow rate (25 μL/min). The binding curve contains 120 s association and 200 s dissociation. A pulse of 10 mM NaOH injection was used for regeneration if needed. To measure the dissociation constant (KD), titrations of compound solutions with a serial dilution were applied. The KD value was then calculated by fitting the binding curves based on a steady-state model in BIAevaluation 4.0 software and plotted in GraphPad Prism 9.
On the technique in general: In SPR one partner is held on a chip, and binding of the other changes the refractive index at the surface.

Data set [2] has as its system U4/U6 snRNA construct 92 nt (WT, No. 1) (RNA, junction) GGCCUUAUGCACGGGAAAUACGCAUAUCAGUGAGGAUUCGUCCGAGAUUGUGUUUUUGCUGGUGUAAAUCAGCAGUUCCCCUGCAUAAGGCU
The data set can be described thus: SPR steady state. The settings on record: 1x PBS, pH 7.4, 0.005% Tween 20, 5% DMSO.

For data set [3], the system named is U4/U6 snRNA construct 92 nt (WT, No. 1), unlabeled (RNA, junction) GGCCUUAUGCACGGGAAAUACGCAUAUCAGUGAGGAUUCGUCCGAGAUUGUGUUUUUGCUGGUGUAAAUCAGCAGUUCCCCUGCAUAAGGCU
The data set can be described thus: CD melting (260 nm). The conditions noted are these: PBS; 5 μM RNA, 100 μM compound, 5% DMSO.

Data set [4] has as its system U4/U6 snRNA construct 68 nt (No. 3), Cy5 (RNA, junction) GGGAAAUACGCAUAUCAGUGAGGAUUCGUCCGAGAUUGUGUUUUUGCUGGUGUAAAUCAGCAGUUCCC
The data set can be described thus: small molecule microarray. The conditions noted are these: 1x PBS; pH 7.4, 0.005% Tween 20; 50 nM RNA; immobilised compound; Z-score cutoff 3.

For data set [5], the system named is K-turn-containing RNAs (92 nt, 68 nt, and 32 nt). The data set can be described thus: SMM screening, K-turn-containing RNAs. It counts as binding, yeast. The conditions noted are these: Z-score cutoff 3. How it is done:
(§1) For high-throughput screening using SMM, the microarray slides were prepared based on previously reported methods using a robotic microarray printer (Arrayjet, UK).[34] Each slide contained ~7,000 compounds with duplicate spots of each sample. To perform screening, the SMM slide surface was first blocked with 500 nM yeast total tRNA (Invitrogen) in screening buffer (1xPBS, pH 7.4, 0.005% Tween 20) for 2 h prior to target RNA incubation. Then, the 5′-Cy5-labeled U4/U6 RNA construct was folded as above described, followed by buffer exchange to screening buffer. After annealing, the RNA was diluted to 50 nM in screening buffer and incubated with the microarray for another 2 h. After that, the glass slide was gently washed with PBST, PBS, and ddH2O three times in each buffer solution and dried in a centrifuge at 1,700 g for 2 min. Finally, the microarray was imaged with an InnoScan 1100 AL fluorescence scanner (Innopsys, France) at 635 nm and the hits were identified based on the quantified fluorescent intensity of each spot.

Data set [6] concerns U4/U6 snRNA construct 79 nt (No. 2, K-turn disrupted), Cy5 (RNA, junction) GGCCUUAUGCACGGGAAAUACGCAUAUCGUAAGAUUGUGUUUUUGCUGGUGUAAAUCAGCAGUUCCCCUGCAUAAGGCU
Nature of the data set: small molecule microarray. The settings on record: 1x PBS; pH 7.4, 0.005% Tween 20; 50 nM RNA; immobilised compound; Z-score cutoff 3.

The test system of data set [7] is U4U6 RNA for SHAPE-MaP (T7 transcript of Template) (RNA, junction) GGGCCUUCGGGCCAAGGCCUUAUGCACGGGAAAUACGCAUAUCAGUGAGGAUUCGUCCGAGAUUGUGUUUUUGCUGGUGUAAAUCAGCAGUUCCCCUGCAUAAGGCUUCGAUCCGGUUCGCCGGAUCCAAAUCGGGCUUCGGUCCGGUUC
Nature of the data set: SHAPE-MaP (2A3). The conditions noted are these: KCl (3.3x folding buffer: 1023 mM); potassium phosphate pH 7.0, EDTA; 100 μM compound.

The test system of data set [8] is U4/U6 snRNA construct 92 nt (WT, No. 1), Cy5 (RNA, junction) GGCCUUAUGCACGGGAAAUACGCAUAUCAGUGAGGAUUCGUCCGAGAUUGUGUUUUUGCUGGUGUAAAUCAGCAGUUCCCCUGCAUAAGGCU
Nature of the data set: small molecule microarray. The conditions noted are these: 1x PBS; pH 7.4, 0.005% Tween 20; 50 nM RNA; immobilised compound; Z-score cutoff 3.

For data set [9], the system named is U4/U6 snRNA construct 32 nt (No. 4), Cy5 (RNA, hairpin) CGCAUAUCAGUGAGGAUUCGUCCGAGAUUGUG
The data set can be described thus: small molecule microarray. The conditions noted are these: 1x PBS; pH 7.4, 0.005% Tween 20; 50 nM RNA; immobilised compound; Z-score cutoff 3.

Data set [10] concerns 79 nt RNA (lacking the K-turn). The data set can be described thus: SMM screening, 79 nt RNA. It counts as binding, yeast. The conditions noted are these: Z-score cutoff 3. How it is done:
as §1

The next data set addresses T1, Snu13 (yeast (species ), UniProt P39990 1-126).
T1 sequence: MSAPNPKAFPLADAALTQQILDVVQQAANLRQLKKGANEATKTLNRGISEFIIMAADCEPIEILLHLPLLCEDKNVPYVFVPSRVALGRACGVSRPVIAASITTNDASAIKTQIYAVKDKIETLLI
The data set can be described thus: MST; no compound; 50 nM RNA; MST: 10 mM HEPES pH 7.4, 150 mM NaCl, 0.005% Tween 20, 50 nM RNA (protein buffer, mixed 1:1 with RNA); EMSA: 20 mM Tris-Cl pH 7.6, 150 mM NaCl, 0.1% Triton X-100, 2 mM DTT, room temperature, 8% native PAGE; RNA folded in 11.25 mM K-phosphate pH 7.0, 310 mM KCl, 5 mM EDTA. The settings on record: label: 5'-Cy5; folded single strand; three-way junction, U4 5' stem-loop with 5x2 internal loop (K-turn).

A word on the Kd: it is the equilibrium constant for the complex coming apart. Lower therefore signals tighter binding. For the molecule `c1cncc(CNc2nnc(-c3nc(C4CC4)no3)c3ccccc23)c1` [Compound 18], the Kd in data set [1] is more than 100 µM.
By KD is commonly meant a measure of binding affinity in units of concentration. In data set [2], `CN(C)CCCNc1nnc(-c2nc(-c3ccc(F)cc3)no2)c2ccccc12` [Compound 23] returned a KD of 11.9 ± 7.1 µM. Binding in data set [1] was put at a Kd of 11.9 ± 7.1 µM.
`CN(C)CCNc1nnc(-c2nc(C3CC3)no2)c2ccccc12` [Compound 14]: in data set [2], the KD is 32.8 ± 11.0 µM. Also, the affinity in [1], expressed as Kd, was 32.8 ± 11 µM.
`CCc1nnc(-c2nnc(NCCCN3CCOCC3)c3ccccc23)o1` [Compound 9] showed a KD in data set [2] of 61.3 ± 38.9 µM. The molecule also registered a Kd in [1] of 61.3 ± 38.9 µM.
In turn, `CCCCNc1nnc(-c2nc(C3CC3)no2)c2ccccc12` [Compound 16] displayed a Kd in data set [1] of more than 100 µM.
In turn, `CCc1nnc(-c2nnc(NCCN(C)C)c3ccccc23)o1` [Compound 3] showed a KD in data set [2] of 29.2 ± 8.6 µM. The same molecule registered a Kd in data set [1] of 29.2 ± 8.6 µM.
Consider `CCN(CC)CCNc1nnc(-c2nc(C3CC3)no2)c2ccccc12` [Compound 15], for which the KD in data set [2] is 23.4 ± 6.0 µM. Also, the Kd in [1] amounted to 23.4 ± 6 µM.
In data set [1], `COCCNc1nnc(-c2nnc(C3CC3)o2)c2ccccc12` [Compound 13] yielded a Kd of more than 100 µM.
As usually defined, the ΔTm is the shift of the melting midpoint relative to a reference. For the molecule `Cc1ccc(-n2ncc3c(NCCCN(C)C)ncnc32)cc1Cl` [Compound 1], the KD in [2] was determined as 50.3 ± 1.3 µM. For the same molecule, the ΔTm in [3] was -1.5 ± 0.5 °C. For the same molecule, the binding result is on record as “yes” in [4]; “no” in data set [6]; “yes” in data set [7]; “yes” in data set [8]; “yes” in data set [9]. The SMM binding signal entry in data set [5] is on record as “positive binding signals”; in [10] it was “negative results”. The Kd in [1] is 50.3 ± 1.3 µM.
`CCc1nnc(-c2nnc(NCCCN(C)C)c3ccccc23)o1` [Compound 2] came in with a KD in data set [2] of 30.5 ± 8.4 µM. The ΔTm result in data set [3] is “+3.3 ± 0.3 °C”. Moreover, the binding result is “yes” in [4], “no” in data set [6], “yes” in data set [8] and “yes” in data set [9]. The SMM binding signal entry in data set [5] was “positive binding signals”; in data set [10], “negative results”. The same molecule had a Kd in [1] of 30.5 ± 8.4 µM.
As for `c1ccc2c(-c3nc(C4CC4)no3)nnc(NCCCN3CCOCC3)c2c1` [Compound 20], the KD in [2] was determined as 42.1 ± 8.6 µM. Further, the affinity in [1], expressed as Kd, was 42.1 ± 8.6 µM.
In [1], `CCc1nnc(-c2nnc(NCc3cccnc3)c3ccccc23)o1` [Compound 8] came in with a Kd of more than 100 µM.
Still for that read-out and setting: in the case of `COCCNc1nnc(-c2nc(C3CC3)no2)c2ccccc12` [Compound 17] it was more than 100 µM.
The molecule `CCN(CC)CCNc1nnc(-c2nnc(C3CC3)o2)c2ccccc12` [Compound 12] came in with a KD in data set [2] of 24.2 ± 7.0 µM. In addition, binding in data set [1] was characterised by a dissociation constant (Kd) of 24.2 ± 7 µM.
As for `CN1CCN(CCCNc2nnc(-c3nc(C4CC4)no3)c3ccccc23)CC1` [Compound 21], in data set [2], the KD was determined as 23.0 ± 5.3 µM. In data set [1], this molecule yielded a Kd of 23 ± 5.3 µM.
For the molecule `CCc1nnc(-c2nnc(NCCOC)c3ccccc23)o1` [Compound 6], in data set [1], the Kd was more than 100 µM.
Turning to `CCc1nnc(-c2nnc(NCCN(CC)CC)c3ccccc23)o1` [Compound 4], the KD in data set [2] (signal at 100 μM, not fitted) is more than 100 µM. Moreover, the Kd in data set [1] is more than 100 µM.
Molecule `c1ccc2c(-c3nc(C4CC4)no3)nnc(NCCN3CCOCC3)c2c1` [Compound 19] had a KD in data set [2] of 34.5 ± 11.3 µM. For the same molecule, the affinity in [1], expressed as Kd, was 34.5 ± 11.3 µM.
For the molecule `Fc1ccc(-c2noc(-c3nnc(NCc4cccnc4)c4ccccc34)n2)cc1` [Compound 24], the dissociation constant KD in data set [2] (signal at 100 μM, not fitted) was more than 100 µM. This molecule also showed a Kd in data set [1] of more than 100 µM.
In turn, `CN1CCN(CCNc2nnc(-c3nc(-c4ccc(F)cc4)no3)c3ccccc23)CC1` [Compound 25] showed a KD in data set [2] of 13.9 ± 3.2 µM. This molecule displayed a Kd in data set [1] of 13.9 ± 3.2 µM.
`CCc1nnc(-c2nnc(NCCCOC)c3ccccc23)o1` [Compound 7]: in data set [1], the Kd is more than 100 µM.
Regarding `CCc1nnc(-c2nnc(NCCCN3CCN(C)CC3)c3ccccc23)o1` [Compound 10], the KD in data set [2] worked out at 51.4 ± 8.0 µM. Besides, in [1], the equilibrium dissociation constant (Kd) is 51.4 ± 8 µM.
Turning to `CCc1nnc(-c2nnc(NCCC(C)C)c3ccccc23)o1` [Compound 11], the Kd in data set [1] was more than 100 µM.
On the same count and under the same terms, for `CCCCNc1nnc(-c2nnc(CC)o2)c2ccccc12` [Compound 5] the value was more than 100 µM.

B1: U4/U6 snRNA 92 nt construct (structured_RNA)
RNA: GGCCUUAUGCACGGGAAAUACGCAUAUCAGUGAGGAUUCGUCCGAGAUUGUGUUUUUGCUGGUGUAAAUCAGCAGUUCCCCUGCAUAAGGCU
As to B1, in the data set with Snu13, the Kd was 0.062 ± 0.004 µM.
